{"source": "patent US20260085315A1", "about": "“POLYNUCLEOTIDE COMPOSITIONS AND METHODS FOR TREATMENT OF CANCER” (APTAH BIO, INC., priority 2023, published 2026)", "key": {"MCF-7 cell line": {"tested_on": "MCF-7 cell line", "assay": "Cell cycle assay (propidium iodide, flow cytometry)", "assay_type": "cell-based, Human", "conditions": "0.25 and 0.5 μM; 48 hours; only statistically significant alteration", "description": "Cell cycle assays were performed to understand how the ASMO APT20TTMG affects the cell cycle of MCF-7 cell line and its potential mechanisms of action. Initially, cells were plated in 12-well plates at a density of 5×10^4 cells/well and cultured for 24 hours for adhesion and then treated with three different concentrations of APT20TTMG (0.25, 0.5 and 1.0 μM) for 48 hours. After, cells were collected using a solution of trypsin/EDTA and washed with 2.0 mL of PBS buffer followed by centrifugation at 1500 rpm for 5 minutes. Then, the cells were fixed with ice-cold 70% ethanol and incubated overnight at 4° C. After that, cells were washed again with 2.0 mL of PBS and incubated with Propidium Iodide solution (50 μg/mL) and RNAse (200 μg/mL) for 1 hour at room temperature and protected from light. Finally, the cells were analyzed in a flow cytometer (BD FACSCanto II, BD Biosciences), through the acquisition of 10.000 gated events considering each sample."}, "MAPT": {"tested_on": "MAPT", "assay": "MAPT expression by qPCR in SK-N-SH", "assay_type": "cell-based", "conditions": "0.5 μM; for reduction of MAPT expression: relative to Lipofectamine 3000 only", "description": "(§1) FIG. 27A-27B illustrates MAPT expression and tau quantification obtained after 24, 48, 96 and 144 hours of incubation with ASMO1 (0.5 μM) in neuroblastoma cell line.\nAt all time points cells were rinsed once with PBS, before proceeding with RNA extraction using the RNeasy Plus Kit (Qiagen). RNA (0.1-1 μg) was converted to cDNA using the SuperScript IV First-Strand Synthesis System (Thermo Fisher), following manufacturer instructions. After RNA removal, 5-10 ng of cDNA were amplified by qPCR. The following Taqman probes (Thermo Fisher) were used: Total TAU (MAPT, Assay ID: Hs00902193_m1), GAPDH (GAPDH, Assay ID: Hs99999905_m1). Gene expression was analyzed using the Applied Biosystems QuantStudio™ 12K Flex Real-Time PCR System. Quantification of gene expression was performed using the comparative threshold cycle (2^-ΔΔCT) Livak method, relative to Lipofectamine 3000 only treated cells. Gene expression was normalized to the reference gene GAPDH."}, "TAU protein": {"tested_on": "TAU protein", "assay": "Tau quantification by Western blot in SK-N-SH", "assay_type": "cell-based", "conditions": "0.5 μM", "description": "as §1\nCells were rinsed once with ice-cold PBS, collected, and pelleted by centrifugation at 2500 g for 5 minutes at 4° C. Each sample was re-suspended and lysed in 50 μl ice-cold radioimmunoprecipitation assay (RIPA) buffer (Thermo Fisher Scientific, USA) containing EDTA-free Halt protease and phosphatase inhibitor cocktail mixture (Thermo Fisher Scientific, USA) for 20 min at 4° C. To increase protein yields, each sample was homogenized using a 29 G×13 mm needle and syringe. Cell lysates were clarified by centrifugation at 17,000 g for 15 minutes at 4° C. Supernatants were collected and total protein concentration was determined using the BCA protein assay kit (Thermo Fisher Scientific, USA) according to the manufacturer's instructions. 15 μg of total protein in cell lysates were denatured in NuPAGE LDS sample buffer (Thermo Fisher Scientific, USA) with NuPAGE sample reducing agent (DTT; Thermo Fisher Scientific, USA) and boiled at 90° C. for 5 minutes. […] Densitometry using Image J (v1.48k; NIH) was performed and all quantification was standardized against vinculin levels."}, "[1]": {"tested_on": "U87MG (Human Glioblastoma)", "assay": "BrdU cell proliferation assay", "assay_type": "cell-based", "description": "In vitro effects of APT20TTMG on viability and proliferation of human cancer cell line U87MG (Human Glioblastoma) were also evaluated by MTT and BrdU assays, respectively. Cells were treated with APT20TTMG and Reference Items in technical triplicates (Experiment was done in 3 different sets) at various concentrations for 48 h, 96 h, and 144 h. APT20TTMG and Reference Items were read after every 48 h.\nAs shown in FIGS. 32-33, A MTT assay (FIG. 32) was also performed with another five different concentrations of APT20TTMG (0.003, 0.03, 0.3, 3, and 30 μM) and at 48, 96, and 144 hours of incubation. […] Finally, to confirm whether APT20TTMG is a cytotoxic or cytostatic molecule considering its ability to reduce cellular viability in certain concentrations, a cell proliferation assay (FIG. 33) with the U87-MG cell line was also performed in the same conditions as the MTT assay. […] Cells were plated and treated with 5 different concentrations (0.003, 0.03, 0.3, 3, and 30 μM). BrdU assay was performed after 48, 96, or 144 hours of incubation. Data are plotted as a percentage (%) of cell viability compared to the negative control group (vehicle). Results are expressed as Mean±SEM of three independent experiments performed in three technical replicates. Statistical analysis was performed using one-way ANOVA followed by Dunnett's multiple comparison test. *p<0.05, **p<0.01, ***p<0.001, ****p<0.0001."}}, "note": "d = 2'-deoxy (DNA); m = 2'-O-methyl"}
{"substance": "APT20TTMG: engineered polynucleotide ASMO1, 24 nt, SEQ ID NO: 3 gtccactaacctttcaggccagcg; targeting moieties 5′-GTCCA-3′ and 5′-CG-3′, U1 snRNP recruiting moiety (GTCCACTAACCTTTCAGGCCAGCG; sugars from the 5' end m5 d14 m5, all phosphorothioate, methylation of C and T or U not given here)", "values": [{"measurement": "cells in S phase of cell cycle", "setting": "MCF-7 cell line", "value": "lower concentration of cells"}, {"measurement": "MAPT expression", "setting": "MAPT; 24 hours", "value": "transient increase"}, {"measurement": "reduction of MAPT expression", "setting": "MAPT; 96 h", "value": "82±1.2", "unit": "%"}, {"measurement": "reduction of MAPT expression", "setting": "MAPT; 144 h", "value": "74±4.3", "unit": "%"}, {"measurement": "reduction of tau protein quantification", "setting": "TAU protein; first of 'the two highest concentrations' as printed (parallel to 96 h)", "value": "40±13.3", "unit": "%"}, {"measurement": "reduction of tau protein quantification", "setting": "TAU protein; second of 'the two highest concentrations' as printed (parallel to 144 h)", "value": "46±14.3", "unit": "%"}, {"measurement": "cell proliferation (BrdU)", "setting": "[1]; 0.03 μM, first 48 hours", "value": "increase in cell proliferation"}, {"measurement": "cell proliferation (BrdU)", "setting": "[1]; highest concentrations (0.3, 3, 30 μM), 144 hours", "value": "significant reduction in cell proliferation"}, {"measurement": "cell proliferation (BrdU)", "setting": "[1]; highest concentrations (0.3, 3, 30 μM), first 48 hours", "value": "temporary increase in cell proliferation"}, {"measurement": "cell proliferation (BrdU)", "setting": "[1]; lowest concentrations (0.003 and 0.03 μM), 144 hours", "value": "statistically significant decrease in proliferation"}]}
